According to ChEMBL document CHEMBL1909294, “Translating clinical findings into knowledge in drug safety evaluation--drug induced liver injury prediction system (DILIps)” (PLoS Comput Biol, 2011):

Assays:
[1] = test system: Hepatotoxicity
Description: Drug Induced Liver Injury Prediction System (DILIps) validation dataset; compound DILI positive/negative as observed in LTKB-BD

[2] = test system: Hepatotoxicity; remark: listed apart in the source
Description: Drug Induced Liver Injury Prediction System (DILIps) validation dataset; compound DILI positive/negative as observed in Pfizer data

[3] = test system: Hepatotoxicity; remark: listed apart in the source
Description: Drug Induced Liver Injury Prediction System (DILIps) validation dataset; compound DILI positive/negative as observed in O'Brien data

Structure (SMILES) | DILI positive/negative [1] | DILI positive/negative [2] | DILI positive/negative [3] | DILI positive/negative ([1]; Liver) | DILI positive/negative ([2]; Liver) | DILI positive/negative ([3]; Liver)
Nc1ccc(C(=O)O)c(O)c1 [AMINOSALICYLIC ACID] | 1 | 1 | 1 | – | – | –
C[C@@](Cc1ccc(O)c(O)c1)(NN)C(=O)O.O [CARBIDOPA] | 1 | 0 | 0 | – | – | –
CS(=O)(=O)Nc1ccc([N+](=O)[O-])cc1Oc1ccccc1 [NIMESULIDE] | – | – | – | 1 | 1 | 1
O=c1[nH]c(=O)n([C@@H]2O[C@H](CO)[C@@H](O)[C@@H]2F)cc1I [FIALURIDINE] | 1 | 1 | 1 | – | – | –
CC(c1cc2ccccc2s1)N(O)C(N)=O (configuration not stated) [ZILEUTON] | 1 | 1 | 1 | – | – | –
NC(=O)OCC(COC(N)=O)c1ccccc1 [FELBAMATE] | 1 | 1 | 1 | – | – | –
CC(=O)Oc1cc(C(C)C)c(OCCN(C)C)cc1C [MOXISYLYTE] | 1 | – | 0 | – | – | –
Cc1cc(NS(=O)(=O)c2ccc(N)cc2)no1 [SULFAMETHOXAZOLE] | – | – | – | 1 | – | 1
